Assay results as given in ChEMBL document CHEMBL3301562, “MMV Box screening against Plasmodium falciparum protein kinases and aminoacyl tRNA synthetases”.

What was measured:
Assay type in all cases: functional
[1] = molecular target: Calcium-dependent protein kinase 1 (Plasmodium falciparum, UniProt P62344); assay: MMV: CDPK1 Protein kinase inhibition assay using recombinant PfCDPK1, syntide 2 peptide substrate, ATP and KinaseGlo to measure % inhibition at 1 uM MMV box compound.
[2] = molecular target: T1, Mitogen-activated protein kinase (Plasmodium falciparum, UniProt Q25917); assay: Final concentrations were 1 uM ATP, 0.5 mM DTT, 1 mM MgCl2, 0.5 mg/mL BSA, and 10 ug/ml MAP2 in a buffer of 50 mM HEPES (pH 7.0). 0.5 mg/mL histone III-S served as the substrate (13); 100 uM AMP-PNP, an ATP analog, was used as a control inhibitor. Incubation time was 4 hours.
T1 sequence (Q25917 whole entry): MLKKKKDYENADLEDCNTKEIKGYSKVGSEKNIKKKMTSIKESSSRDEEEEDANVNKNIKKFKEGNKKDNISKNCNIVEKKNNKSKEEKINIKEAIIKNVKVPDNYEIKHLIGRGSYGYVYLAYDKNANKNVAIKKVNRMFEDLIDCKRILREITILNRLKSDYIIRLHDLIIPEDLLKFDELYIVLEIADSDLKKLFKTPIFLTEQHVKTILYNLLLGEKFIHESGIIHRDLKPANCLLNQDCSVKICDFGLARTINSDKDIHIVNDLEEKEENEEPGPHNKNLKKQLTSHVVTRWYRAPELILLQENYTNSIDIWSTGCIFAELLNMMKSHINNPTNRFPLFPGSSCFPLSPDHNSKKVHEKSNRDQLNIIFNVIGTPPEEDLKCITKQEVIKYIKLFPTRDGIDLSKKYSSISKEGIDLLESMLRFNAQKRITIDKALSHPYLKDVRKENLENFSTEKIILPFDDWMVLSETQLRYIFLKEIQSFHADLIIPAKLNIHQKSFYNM

Lysine--tRNA ligase = Lysine--tRNA ligase (Plasmodium falciparum (isolate 3D7), UniProt Q8IDJ8); assay: MMV: KRS recombinant Plasmodium falciparum Lysyl-tRNA-synthetase, assay with yeast tRNA, ATP, and lysine and 3 uM MMV malaria box compound, assay read out with kinase glo as % inhibition.
Lysine--tRNA ligase, sequence (Q8IDJ8 whole entry): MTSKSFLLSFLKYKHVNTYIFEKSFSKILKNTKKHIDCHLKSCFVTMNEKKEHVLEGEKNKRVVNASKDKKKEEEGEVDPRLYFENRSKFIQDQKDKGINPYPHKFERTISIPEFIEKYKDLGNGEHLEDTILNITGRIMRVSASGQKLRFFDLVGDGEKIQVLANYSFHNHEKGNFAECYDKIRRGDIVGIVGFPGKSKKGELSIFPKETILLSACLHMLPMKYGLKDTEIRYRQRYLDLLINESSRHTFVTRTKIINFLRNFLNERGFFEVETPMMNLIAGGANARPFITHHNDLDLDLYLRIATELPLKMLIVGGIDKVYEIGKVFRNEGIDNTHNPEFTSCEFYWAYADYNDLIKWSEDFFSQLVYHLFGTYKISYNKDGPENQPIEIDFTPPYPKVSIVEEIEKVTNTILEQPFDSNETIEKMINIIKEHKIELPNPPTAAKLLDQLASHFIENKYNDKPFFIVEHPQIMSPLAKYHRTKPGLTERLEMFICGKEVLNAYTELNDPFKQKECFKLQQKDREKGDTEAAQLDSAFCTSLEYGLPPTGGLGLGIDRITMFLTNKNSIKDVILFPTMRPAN

[3] = molecular target: T2, Cdk-related protein kinase 6 (Plasmodium falciparum, UniProt O77239); assay: Final concentrations were 1.5 uM ATP, 5 mM MnCl2, and 15 ug/ml PK6 in a buffer of 100 mM Tris-HCl (pH 7.5). 50 ug/mL MBP was provided as the substrate; 10 uM staurosporine was used as a control inhibitor. Incubation time was 3 hours and 40 minutes.The catalytic activity of each kinase was considered proportional to ATP consumed, as determined from measurements of residual [ATP] with the luciferase-based reagent Kinase-Glo (Promega) following incubation. Luminescence (proportional to residual [ATP]) was measured on the plate readers FLx800 (BioTek Instruments, Winooski, VT, USA) and MicroBeta2.
T2 sequence (O77239 whole entry): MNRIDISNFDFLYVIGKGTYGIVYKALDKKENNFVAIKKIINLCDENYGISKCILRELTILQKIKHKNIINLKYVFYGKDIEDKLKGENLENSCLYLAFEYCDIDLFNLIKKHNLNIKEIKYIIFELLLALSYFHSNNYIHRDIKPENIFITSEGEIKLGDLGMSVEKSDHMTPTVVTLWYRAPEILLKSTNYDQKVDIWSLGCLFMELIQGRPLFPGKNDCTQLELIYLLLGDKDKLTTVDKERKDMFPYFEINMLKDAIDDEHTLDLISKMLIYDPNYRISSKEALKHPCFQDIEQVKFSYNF

Proline--tRNA ligase = molecular target: T3, Proline--tRNA ligase (Plasmodium falciparum (isolate 3D7), UniProt Q8I5R7); assay: MMV: ProRS recombinant Plasmodium falciparum Prolyl-tRNA-synthetase, assay with yeast tRNA, ATP, and proline and 3 uM MMV malaria box compound, assay read out with kinase glo as % inhibition.
T3 sequence (Q8I5R7 whole entry): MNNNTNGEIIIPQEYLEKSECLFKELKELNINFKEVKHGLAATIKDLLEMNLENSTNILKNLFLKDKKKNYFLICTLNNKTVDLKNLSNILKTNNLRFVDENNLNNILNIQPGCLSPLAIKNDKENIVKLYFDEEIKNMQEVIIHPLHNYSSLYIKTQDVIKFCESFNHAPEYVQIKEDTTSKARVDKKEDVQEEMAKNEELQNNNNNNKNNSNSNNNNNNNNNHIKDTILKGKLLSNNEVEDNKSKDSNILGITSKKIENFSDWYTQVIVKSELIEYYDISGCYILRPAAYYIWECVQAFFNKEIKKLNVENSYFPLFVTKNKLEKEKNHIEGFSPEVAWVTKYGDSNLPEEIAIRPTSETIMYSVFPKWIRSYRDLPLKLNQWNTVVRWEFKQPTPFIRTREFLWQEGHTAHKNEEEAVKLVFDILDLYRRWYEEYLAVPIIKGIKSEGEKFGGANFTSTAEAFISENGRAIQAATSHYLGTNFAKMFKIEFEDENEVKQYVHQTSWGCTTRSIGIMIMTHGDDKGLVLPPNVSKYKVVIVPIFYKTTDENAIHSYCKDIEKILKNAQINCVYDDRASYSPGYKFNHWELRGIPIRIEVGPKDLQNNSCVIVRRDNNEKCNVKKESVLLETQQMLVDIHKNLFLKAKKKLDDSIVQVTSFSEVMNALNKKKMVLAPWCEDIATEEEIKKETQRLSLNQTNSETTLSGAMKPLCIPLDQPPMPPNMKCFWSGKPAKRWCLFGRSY

[4] = molecular target: T4, Calcium-dependent protein kinase 4 (Plasmodium falciparum (isolate 3D7), UniProt Q8IBS5); assay: MMV: CDPK4 Protein kinase inhibition assay using recombinant PfCDPK4, syntide2 peptide substrate, ATP and KinaseGlo to measure % inhibition at 1 uM MMV box compound.
T4 sequence (Q8IBS5 whole entry): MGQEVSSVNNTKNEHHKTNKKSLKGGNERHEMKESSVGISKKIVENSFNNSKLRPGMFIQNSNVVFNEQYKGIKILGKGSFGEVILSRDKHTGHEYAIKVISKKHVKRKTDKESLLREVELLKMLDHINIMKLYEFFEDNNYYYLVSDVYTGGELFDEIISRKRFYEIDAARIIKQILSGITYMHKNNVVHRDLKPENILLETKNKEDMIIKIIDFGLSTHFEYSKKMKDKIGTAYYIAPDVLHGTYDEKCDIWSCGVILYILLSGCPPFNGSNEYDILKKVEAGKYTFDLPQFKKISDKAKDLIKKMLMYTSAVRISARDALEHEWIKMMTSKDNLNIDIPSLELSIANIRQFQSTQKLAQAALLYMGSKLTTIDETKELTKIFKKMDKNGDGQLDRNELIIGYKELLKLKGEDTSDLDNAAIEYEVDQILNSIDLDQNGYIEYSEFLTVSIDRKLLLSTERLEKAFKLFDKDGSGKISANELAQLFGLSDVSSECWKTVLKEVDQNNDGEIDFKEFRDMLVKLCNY

[5] = molecular target: T5, Putative uncharacterized protein pk7 (Plasmodium falciparum, UniProt O96214); assay: Final concentrations were 1 uM ATP, 2 mM DTT, 20 mM MgCl2, 2 mM MnCl2, 0.01% BSA, and 6 ug/ml PK7, in a buffer of 20 mM Tris-HCl (pH 7.5). The enzyme itself was the only substrate present (since autophosphorylation occurs); 100 uM 1NA-PP1 was used as a control inhibitor. Incubation time was 3 hours.
T5 sequence (O96214 whole entry): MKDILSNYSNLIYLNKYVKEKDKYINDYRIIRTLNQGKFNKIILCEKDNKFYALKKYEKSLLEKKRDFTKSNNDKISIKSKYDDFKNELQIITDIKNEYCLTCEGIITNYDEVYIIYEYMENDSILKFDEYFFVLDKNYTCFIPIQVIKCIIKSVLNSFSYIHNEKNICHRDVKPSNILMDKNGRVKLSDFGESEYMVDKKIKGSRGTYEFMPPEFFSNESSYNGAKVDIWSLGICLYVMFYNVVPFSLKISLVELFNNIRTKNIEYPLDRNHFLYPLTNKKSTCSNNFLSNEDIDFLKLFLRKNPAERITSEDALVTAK

Calcium-dependent protein kinase 1, sequence (P62344 whole entry): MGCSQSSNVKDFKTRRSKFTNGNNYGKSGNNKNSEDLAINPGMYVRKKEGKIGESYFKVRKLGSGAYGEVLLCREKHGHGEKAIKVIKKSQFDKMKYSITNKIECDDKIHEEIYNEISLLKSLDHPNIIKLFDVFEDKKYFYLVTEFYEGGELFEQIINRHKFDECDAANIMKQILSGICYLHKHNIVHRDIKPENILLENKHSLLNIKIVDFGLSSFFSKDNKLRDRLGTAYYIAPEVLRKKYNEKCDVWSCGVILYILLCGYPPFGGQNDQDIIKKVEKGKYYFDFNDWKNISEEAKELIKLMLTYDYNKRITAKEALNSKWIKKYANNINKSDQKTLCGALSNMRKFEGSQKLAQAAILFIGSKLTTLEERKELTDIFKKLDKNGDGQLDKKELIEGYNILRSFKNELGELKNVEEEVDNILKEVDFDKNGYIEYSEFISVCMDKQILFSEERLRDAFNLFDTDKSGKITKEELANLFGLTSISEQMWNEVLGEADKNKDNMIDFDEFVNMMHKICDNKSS

| Compound | IC50 [1] [nM] | IC50 [2] [nM] | IC50 (Lysine--tRNA ligase) [nM] | IC50 [3] [nM] | IC50 (Proline--tRNA ligase) [nM] | IC50 [4] [nM] | IC50 [5] [nM] |
| --- | --- | --- | --- | --- | --- | --- | --- |
| CN(N=O)C1=C(NC2CCCCC2)C(=O)c2ccccc2C1=O | > 1000 | > 1000 | > 2500 | > 1000 | > 2500 | > 1000 | > 1000 |
| CCN(CC)CCNc1ccnc2cc3ccccc3cc12 | > 1000 | > 1000 | > 2500 | > 1000 | > 2500 | > 1000 | > 1000 |
| Cc1cccc(N2C(=O)C3C(C2=O)C2(c4ccccc4)C(=O)C3(c3ccccc3)C(c3ccc4c(c3)OCO4)=C2c2ccc3c(c2)OCO3)c1 (stereo not given) | > 1000 | > 1000 | > 2500 | > 1000 | > 2500 | > 1000 | > 1000 |
| O=C(Nc1ccc(Cl)cc1)N1CCN(c2ccc3nncn3n2)CC1 | > 1000 | > 1000 | > 2500 | > 1000 | > 2500 | > 1000 | > 1000 |
| Cn1c(=O)n(C)c2cc(CNCCNc3ccnc4cc(Cl)ccc34)ccc21 | > 1000 | > 1000 | > 2500 | > 1000 | > 2500 | > 1000 | > 1000 |
| O=C(CCl)NCCOc1ccc(Cl)cc1Cl | > 1000 | > 1000 | > 2500 | > 1000 | > 2500 | > 1000 | > 1000 |
| CN(C)CCCNCc1ccc(-c2ccc(F)c(Cl)c2)o1 | > 1000 | > 1000 | > 2500 | > 1000 | > 2500 | > 1000 | > 1000 |
| OC1CCCCC1C1(NC(=S)Nc2ccccc2)CCCCC1 (stereo not given) | > 1000 | > 1000 | > 2500 | > 1000 | > 2500 | > 1000 | > 1000 |
| CCCCCCc1cc(O)c2c3c(c(=O)oc2c1)CCC(C)C3 (stereo not given) | > 1000 | > 1000 | > 2500 | > 1000 | > 2500 | > 1000 | > 1000 |
| O=C(Cc1ccccc1)NC(c1ccc(Cl)cc1)c1c(O)ccc2ccccc12 (stereo not given) | > 1000 | > 1000 | > 2500 | > 1000 | > 2500 | > 1000 | > 1000 |
| CCOc1ccc(-c2nc(NC(=O)c3cccc(S(C)(=O)=O)c3)sc2C)cc1 | > 1000 | > 1000 | > 2500 | > 1000 | > 2500 | > 1000 | > 1000 |
| O=C(NCc1ccco1)C1CCN(S(=O)(=O)c2ccc(Cl)cc2)CC1 | > 1000 | > 1000 | > 2500 | > 1000 | > 2500 | > 1000 | > 1000 |
| FC(F)(F)c1ccc(Nc2nnnc3ccccc23)cc1 | > 1000 | > 1000 | > 2500 | > 1000 | > 2500 | > 1000 | > 1000 |
| CCOc1ccc(/C=C/c2nc(=O)c3ccccc3o2)cc1 | > 1000 | > 1000 | > 2500 | > 1000 | > 2500 | > 1000 | > 1000 |
| COCCn1c(C)nc2ccccc2c1=O | > 1000 | > 1000 | > 2500 | > 1000 | > 2500 | > 1000 | > 1000 |
